From patent publication US9956232B2, “Dialkyl-phosphinoyl-alkane (Dapa) compounds and compositions for treatment of lower gastrointestinal tract disorders” (priority 2016, dated 2018)

Key:
Strains TA 98 and TA100 = assay: Ames test; type: cell-based; conditions: TA 98 and TA100, with and without liver activation
Procedure: Preliminary toxicological studies were conducted on DAPA-2-5 and DAPA-2-7.

isolated mouse vagus = assay: Capsaicin-induced depolarization of the isolated vagus nerve; conditions: data also shown in U.S. Ser. No. 14/544,042
Excerpt: An isolated vagus nerve model was developed at Imperial College, London, U.K. [Birrell et al. TrpA1 agonists evoke coughing in guinea pig and human volunteers. Amer. J. respiratory and critical care medicine 180, 1042-7, 2009; Patel, H. J. et al. Inhibition of guinea-pig and human sensory nerve activity and the cough reflex in guinea-pigs by cannabinoid (CB2) receptor activation. Brit. J. Pharmacol. 140, 261-8, 2003]. In this in vitro assay, segments of the mouse vagus nerve are placed on a platform and the electrical activity is recorded after topical application of capsaicin. Capsaicin is a known irritant that elicits pain when it is applied to the skin and it will depolarize the isolated vagus. […] The similar effect of DAPA-2-5 in this test system was published in U.S. Ser. No. 14/55,042. Briefly, segments of vagus nerve, caudal to the nodose ganglion, were removed from mice with fine forceps and segments placed in oxygenated Krebs solution and bubbled with 95% O2/5% CO2. The desheathed nerve trunk was mounted in a ‘grease-gap’ recording chamber and constantly superfused with Krebs solution with a flow rate of approximately 2 mL/min, and the electrical activity of the nerve monitored with electrodes. The temperature of the perfusate was kept constant at 37° C. by a water bath. Nerve depolarizations were induced by superfusion of the nerve with capsaicin (1 μM). After two reproducible depolarization responses to capsaicin, DIPA-1-7 was applied at 1 mg/mL for 10 minutes in the perfusate followed by capsaicin.

[1] = Tablet characterisation (hardness, friability, disintegration, HPLC recovery); type: physicochemical; conditions: prototype tablets disintegrated in water
Procedure: Dilution Approach: DAPA-2-5 liquid were loaded onto excipients (batch size: 12-24 g) in ˜12 experiments. The API and the selected excipients were mixed geometrically using a stainless steel spatula, and the mixture passed through sieve #20. The sieved blend was lubricated using magnesium stearate (previously sieved through mesh #40), and evaluated for appearance and flow property (through funnel). Based on the flow nature, selected blends were compressed in to tablets using Ø7.2 mm (for 120 mg tablets) or Ø9.5 mm (for higher than 120 mg tablet) standard concave round tooling on an Acura rotary press. Tablets were evaluated for thickness, hardness, friability, and disintegration test in 10 mL of purified water at room temperature. The appearance of powder blends and tablets were photographed.
The formed tablet was evaluated by several parameters. The dissolution rate is the time for the tablet to dissolve in a fixed volume of water [e.g. 10 mL] and, in the case of the ODT, the disintegration time should be less than 30 sec. Tablet hardness measures the structural integrity of a tablet “under conditions of storage, transportation, and handling before usage”. […]
A high pressure liquid chromatography [HPLC] method was developed for analysis of DAPA-2-5 in aqueous solution. […] Prototype tablets containing DAPA-2-5 were disintegrated and the content of DAPA-2-5 measured. […]

[2] = Repeated-dose toxicity in male rats (organ weights, histology); type: in vivo, rat

CCCCCP(=O)(C(C)CC)C(C)CC (stereo not drawn) [DAPA-2-5, 1-Di(sec-butyl) phosphinoyl-pentane]
mutagenicity in the Ames test (Strains TA 98 and TA100): Neither of these compounds was mutagenic | inhibition of capsaicin-induced depolarization (isolated mouse vagus; TRPM8 knock-out mouse): did not inhibit | percent inhibition of capsaicin-induced depolarization (isolated mouse vagus; isolated normal mouse vagus): 60% | DAPA-2-5 recovered from the aqueous phase [1]: 86±2% | organ weights and histology vs vehicle ([2]; 20 mg/kg perioral by gavage for 7 days, rats): no statistical difference in organ weights or in histology | organ weights and histology vs vehicle ([2]; via drinking water, 41 mg/kg body weight/day for 40 days, male rats): no statistical difference in organ weights or in histology
